Test [1] concerns the target T1, EGFR with insertion SVD between D770 and N771 (mutEGFR D770_N771insSVD) (Homo sapiens, UniProt P00533, DUP768-770).
T1 construct: amino acids R669 to A1210; made in house; host or cells: Sf9 insect cells (baculovirus)
As to the kind of experiment: Exon20-Mutant-EGFR(D770_N771insSVD) kinase assay (TR-FRET). Format: biochemical. The note with it: 2 mM ATP, Table 2. A general note: Time-resolved FRET reads energy transfer from a long-lived donor to a nearby acceptor.

The target of another test is T2, Bub1 (Homo sapiens, UniProt O43683).
T2 construct: catalytic domain of human Bub1 (amino acids 704-1085); His6 (N); made in house; host or cells: insect cells (Hi5)
T2 sequence (O43683 704-1085): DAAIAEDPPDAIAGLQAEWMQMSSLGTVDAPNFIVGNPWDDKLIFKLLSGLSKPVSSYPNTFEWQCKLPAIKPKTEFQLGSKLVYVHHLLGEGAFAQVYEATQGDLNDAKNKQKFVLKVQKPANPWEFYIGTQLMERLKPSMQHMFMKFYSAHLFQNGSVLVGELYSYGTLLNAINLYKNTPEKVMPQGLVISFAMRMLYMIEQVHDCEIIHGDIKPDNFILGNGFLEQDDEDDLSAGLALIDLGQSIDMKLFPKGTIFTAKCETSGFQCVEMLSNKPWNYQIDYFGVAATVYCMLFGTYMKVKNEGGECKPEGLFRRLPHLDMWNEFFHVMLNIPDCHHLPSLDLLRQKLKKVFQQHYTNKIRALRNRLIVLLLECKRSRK
As to the kind of experiment: Bub1 high ATP kinase assay (TR-FRET). Format: biochemical. The following applies: Bub1 high ATP (2 mM) IC50, TR-FRET, 2 mM ATP; Table 3. A digest of the protocol:
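Read-out was the 665/620 nm TR-FRET ratio after 1 h at 22 °C with EDTA stop mix (streptavidin-XL665, anti-phosphoserine antibody, Eu anti-mouse IgG). Beforehand, a biotinylated peptide was phosphorylated for 60 min at 22 °C under high ATP by His6-tagged human Bub1 residues 704-1085 expressed in Hi5 cells, about 200 ng/ml.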

Test [2] addresses Ba/F3-EGFR-D770_N771insSVD cells (Homo sapiens, UniProt P00533, DUP768-770, cells depend on it). In words: Ba/F3 cell survival assay, EGFR D770_N771insSVD. The class given is cell-based. The note with it: Cell Titer-Glo, 48 h, without IL-3; Table 4; read-out: BA/F3 (insSVD) IC50.
The target of another test is Ba/F3-EGFR-WT cells (Homo sapiens, UniProt P00533). As to the kind of experiment: Ba/F3 cell survival assay, wild type EGFR. Format: cell-based. The following applies: Cell Titer-Glo, 48 h, with 10 ng/mL EGF; Table 4; read-out: BA/F3 (wild type) IC50. A general note: ATP-based viability assays read luminescence as a measure of living cells.
Chain of Ba/F3-EGFR-WT cells (P00533 whole entry, looked up, change not shown): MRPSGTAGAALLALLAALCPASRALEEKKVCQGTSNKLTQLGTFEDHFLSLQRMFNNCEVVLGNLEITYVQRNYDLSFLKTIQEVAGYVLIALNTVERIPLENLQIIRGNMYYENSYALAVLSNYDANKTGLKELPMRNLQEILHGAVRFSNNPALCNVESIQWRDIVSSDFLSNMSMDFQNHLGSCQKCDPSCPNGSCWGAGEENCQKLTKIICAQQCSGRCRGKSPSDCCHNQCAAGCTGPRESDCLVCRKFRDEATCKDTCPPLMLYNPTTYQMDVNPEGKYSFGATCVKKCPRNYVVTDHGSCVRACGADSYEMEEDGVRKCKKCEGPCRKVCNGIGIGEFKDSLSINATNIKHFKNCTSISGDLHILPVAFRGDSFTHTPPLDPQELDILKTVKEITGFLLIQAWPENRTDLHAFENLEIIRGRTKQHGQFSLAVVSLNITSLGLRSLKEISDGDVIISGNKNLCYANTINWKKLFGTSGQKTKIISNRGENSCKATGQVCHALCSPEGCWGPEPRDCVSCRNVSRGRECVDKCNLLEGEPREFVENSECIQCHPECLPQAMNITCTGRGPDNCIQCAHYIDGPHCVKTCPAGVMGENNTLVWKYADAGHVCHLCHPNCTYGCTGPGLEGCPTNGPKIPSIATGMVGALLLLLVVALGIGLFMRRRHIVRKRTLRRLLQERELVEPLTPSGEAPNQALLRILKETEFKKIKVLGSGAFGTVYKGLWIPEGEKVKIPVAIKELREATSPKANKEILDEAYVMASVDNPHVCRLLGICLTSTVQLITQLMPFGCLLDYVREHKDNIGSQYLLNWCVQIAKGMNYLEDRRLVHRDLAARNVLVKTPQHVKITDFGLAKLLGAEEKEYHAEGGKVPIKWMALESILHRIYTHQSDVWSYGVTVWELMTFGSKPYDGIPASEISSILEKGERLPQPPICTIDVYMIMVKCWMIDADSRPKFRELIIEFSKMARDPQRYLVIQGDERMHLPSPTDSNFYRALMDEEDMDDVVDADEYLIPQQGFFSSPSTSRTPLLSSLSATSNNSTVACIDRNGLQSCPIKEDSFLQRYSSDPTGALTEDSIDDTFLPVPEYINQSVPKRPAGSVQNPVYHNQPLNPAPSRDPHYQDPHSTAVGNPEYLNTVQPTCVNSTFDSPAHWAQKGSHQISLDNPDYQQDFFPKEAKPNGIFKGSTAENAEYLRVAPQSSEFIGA

Chain of Ba/F3-EGFR-D770_N771insSVD cells (P00533 with tags, fused parts or gaps DUP768-770): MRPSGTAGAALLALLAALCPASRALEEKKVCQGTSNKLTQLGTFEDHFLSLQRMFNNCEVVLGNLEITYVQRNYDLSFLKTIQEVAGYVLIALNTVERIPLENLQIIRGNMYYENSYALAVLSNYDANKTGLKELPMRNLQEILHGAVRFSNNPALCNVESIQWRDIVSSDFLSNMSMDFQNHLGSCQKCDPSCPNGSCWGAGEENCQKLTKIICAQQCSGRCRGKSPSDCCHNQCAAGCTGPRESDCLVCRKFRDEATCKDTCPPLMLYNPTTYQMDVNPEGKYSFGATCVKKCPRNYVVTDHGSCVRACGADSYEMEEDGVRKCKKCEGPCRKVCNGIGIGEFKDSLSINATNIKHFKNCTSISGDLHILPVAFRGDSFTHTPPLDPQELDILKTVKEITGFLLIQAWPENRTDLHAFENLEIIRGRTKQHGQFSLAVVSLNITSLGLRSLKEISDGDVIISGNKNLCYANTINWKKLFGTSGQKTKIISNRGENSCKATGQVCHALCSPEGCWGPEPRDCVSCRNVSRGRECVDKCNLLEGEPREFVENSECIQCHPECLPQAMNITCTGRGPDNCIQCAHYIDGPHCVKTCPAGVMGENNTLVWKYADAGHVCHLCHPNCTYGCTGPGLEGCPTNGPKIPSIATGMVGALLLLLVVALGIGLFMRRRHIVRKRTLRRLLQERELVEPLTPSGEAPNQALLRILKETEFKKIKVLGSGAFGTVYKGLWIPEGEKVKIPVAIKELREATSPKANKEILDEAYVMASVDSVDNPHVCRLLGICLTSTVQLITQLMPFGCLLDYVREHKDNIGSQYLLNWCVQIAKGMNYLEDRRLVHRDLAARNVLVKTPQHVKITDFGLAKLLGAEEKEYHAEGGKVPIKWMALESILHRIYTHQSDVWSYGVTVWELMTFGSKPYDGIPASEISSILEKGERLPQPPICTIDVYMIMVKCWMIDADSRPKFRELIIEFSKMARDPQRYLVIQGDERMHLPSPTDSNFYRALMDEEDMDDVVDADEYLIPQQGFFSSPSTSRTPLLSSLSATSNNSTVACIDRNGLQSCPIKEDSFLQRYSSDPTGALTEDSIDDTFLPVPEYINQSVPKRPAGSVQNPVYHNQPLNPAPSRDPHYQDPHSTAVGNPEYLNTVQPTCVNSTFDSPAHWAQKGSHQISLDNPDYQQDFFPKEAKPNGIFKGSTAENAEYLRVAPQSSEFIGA
T1 sequence (P00533 other isoform, or with tags, fused parts or gaps DUP768-770): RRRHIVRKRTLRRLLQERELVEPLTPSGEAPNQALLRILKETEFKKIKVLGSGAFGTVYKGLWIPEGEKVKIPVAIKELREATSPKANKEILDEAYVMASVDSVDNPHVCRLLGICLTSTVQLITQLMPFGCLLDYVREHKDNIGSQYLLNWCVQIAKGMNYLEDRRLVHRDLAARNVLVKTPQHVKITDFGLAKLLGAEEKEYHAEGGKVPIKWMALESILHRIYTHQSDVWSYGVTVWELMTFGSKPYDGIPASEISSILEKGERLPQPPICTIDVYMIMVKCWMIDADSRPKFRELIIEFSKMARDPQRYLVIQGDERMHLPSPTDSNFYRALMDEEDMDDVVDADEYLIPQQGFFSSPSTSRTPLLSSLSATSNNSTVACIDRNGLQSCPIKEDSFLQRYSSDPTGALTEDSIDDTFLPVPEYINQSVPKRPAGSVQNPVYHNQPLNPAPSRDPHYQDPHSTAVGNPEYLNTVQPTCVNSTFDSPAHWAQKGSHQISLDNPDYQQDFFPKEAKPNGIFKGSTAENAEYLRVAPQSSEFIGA

For orientation: IC50 means the concentration needed to halve the response being measured. Turning to `COc1c(Cl)cccc1Nc1c(-c2ccncc2OC[C@@H]2CN(C)CCO2)[nH]c2c1C(=O)NC1(CC1)C2` [Example 112, 3′-(3-chloro-2-methoxyanilino)-2′-(3-{[(2S)-4-methylmorpholin-2-yl]methoxy}pyridin-4-yl)-1′,7′-dihydrospiro[cyclopropane-1,6′-pyrrolo[3,2-c]pyridin]-4′(5′H)-one], in test [1], the “mutEGFR (D770_N771insSVD) kinase assay IC50” value (“mutEGFR” for short) came to 0.193 nM. For the same compound, on Bub1, 7830 nM corresponded to half-maximal inhibition (IC50). For the same compound, the GI50 in test [2] amounted to 20.4 nM; at Ba/F3-EGFR-WT cells, 553 nM.

`C=CCOCCOc1cnccc1-c1[nH]c2c(c1Nc1cccc(Cl)c1OC)C(=O)NCC2CC=C` (centres unmarked) [Example 114, 7-allyl-2-[3-(2-allyloxyethoxy)-4-pyridyl]-3-(3-chloro-2-methoxy-anilino)-1,5,6,7-tetrahydropyrrolo[3,2-c]pyridin-4-one]: the “mutEGFR” value in test [1] was found to be 0.181 nM. 2070 nM corresponded to half-maximal inhibition against Bub1 (IC50). Moreover, the GI50 was 28.7 nM in test [2] and 347 nM at Ba/F3-EGFR-WT cells.

For `COc1c(Cl)cccc1Nc1c(-c2ccncc2OCC2COCCO2)[nH]c2c1C(=O)NC1(CCC1)C2` (centres unmarked) [Example 123, 3-(3-chloro-2-methoxy-anilino)-2-[3-(1,4-dioxan-2-ylmethoxy)-4-pyridyl]spiro[5,7-dihydro-1H-pyrrolo[3,2-c]pyridine-6,1′-cyclobutane]-4-one], the “mutEGFR” value in test [1] amounted to 0.241 nM. The compound further yielded an IC50 on Bub1 of 439 nM. Also, the GI50 stood at 33.9 nM in test [2] and 604 nM at Ba/F3-EGFR-WT cells.

In the case of `COc1c(Cl)cccc1Nc1c(-c2ccncc2OC[C@@H]2CCCO2)[nH]c2c1C(=O)NC1(CCC1)C2` [Example 126, 3′-(3-chloro-2-methoxyanilino)-2′-(3-{[(2S)-oxolan-2-yl]methoxy}pyridin-4-yl)-1′,7′-dihydrospiro[cyclobutane-1,6′-pyrrolo[3,2-c]pyridin]-4′(5′H)-one], the “mutEGFR” value in test [1] amounted to 0.279 nM. The compound also yielded an IC50 against Bub1 of 1100 nM. The GI50 in test [2] stood at 46.4 nM; at Ba/F3-EGFR-WT cells, 814 nM.

On to `COc1c(Cl)cccc1Nc1c(-c2ccncc2OC[C@@H]2CCCCO2)[nH]c2c1C(=O)NC1(CCC1)C2` [Example 127, 3′-(3-chloro-2-methoxyanilino)-2′-(3-{[(2S)-oxan-2-yl]methoxy}pyridin-4-yl)-1′,7′-dihydrospiro[cyclobutane-1,6′-pyrrolo[3,2-c]pyridin]-4′(5′H)-one], for which the “mutEGFR” value in test [1] turned out to be 0.51 nM. At Bub1, this compound registered an IC50 of 1440 nM. Moreover, the GI50 in test [2] came to 12.1 nM; at Ba/F3-EGFR-WT cells, 406 nM.

As to `COc1c(Cl)cccc1Nc1c(-c2ccncc2OCCC2CCCCO2)[nH]c2c1C(=O)NC1(CCC1)C2` (centres unmarked) [Example 128, 3-(3-chloro-2-methoxy-anilino)-2-[3-(2-tetrahydropyran-2-ylethoxy)-4-pyridyl]spiro[5,7-dihydro-1H-pyrrolo[3,2-c]pyridine-6,1′-cyclobutane]-4-one], the “mutEGFR” value in test [1] is 1.06 nM. In addition, at Bub1, the IC50 turned out to be 726 nM. The figures for the GI50 (in test [2]; at Ba/F3-EGFR-WT cells) were 38.4 nM and 942 nM, respectively.

Turning to `COc1c(Cl)cccc1Nc1c(-c2ccncc2OCC2COC(C)(C)CO2)[nH]c2c1C(=O)NC1(CCC1)C2` (centres unmarked) [Example 129, 3′-(3-chloro-2-methoxyanilino)-2′-{3-[(5,5-dimethyl-1,4-dioxan-2-yl)methoxy]pyridin-4-yl}-1′,7′-dihydrospiro[cyclobutane-1,6′-pyrrolo[3,2-c]pyridin]-4′(5′H)-one], the “mutEGFR” value in test [1] worked out at 0.257 nM. Moreover, half-maximal inhibition on Bub1 (IC50) required 1310 nM. Further, the GI50 in test [2] came to 14 nM; at Ba/F3-EGFR-WT cells, 293 nM.

For `COc1c(Cl)cccc1Nc1c(-c2ccncc2OCC2COC(C)(C)CO2)[nH]c2c1C(=O)NC1(CC1)C2` (centres unmarked) [Example 132, 3′-(3-chloro-2-methoxyanilino)-2′-{3-[(5,5-dimethyl-1,4-dioxan-2-yl)methoxy]pyridin-4-yl}-1′,7′-dihydrospiro[cyclopropane-1,6′-pyrrolo[3,2-c]pyridin]-4′(5′H)-one], the “mutEGFR” value in test [1] is 0.394 nM. Further, the IC50 against Bub1 came to 1480 nM. The GI50 stood at 44.9 nM in test [2] and 986 nM at Ba/F3-EGFR-WT cells.

The values are drawn from patent publication US20230064983A1 (priority 2020, published 2023).
